Reference: patent publication US10793580B2, “Substituted pyrazoloazepin-8-ones and their use as phosphodiesterase inhibitors” (LEO Pharma A/S, priority 2016, dated 2020)

Target: human PDE4D catalytic domain (Homo sapiens (Human), UniProt Q08499)
Assay: PDE4 Assay (TR-FRET, FAM-cAMP cleavage)
Format: biochemical
Settings: human PDE4D catalytic domain (UniProt Q08499 [S380-L740]); 50% inhibition of substrate cleavage; read-out: PDE4 IC50 range
How it was run: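 PDE4D catalytic domain (S380-L740) incubated briefly with unlabelled cAMP plus FAM-cAMP and titrated compound. Reaction stopped with binding buffer holding metal-ion nanoparticles that bind AMP phospho groups and Tb donor, and AMP formation read by TR-FRET. IC50 versus controls, reported as ranges (nM).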

human PDE4D catalytic domain, sequence (Q08499 380-740): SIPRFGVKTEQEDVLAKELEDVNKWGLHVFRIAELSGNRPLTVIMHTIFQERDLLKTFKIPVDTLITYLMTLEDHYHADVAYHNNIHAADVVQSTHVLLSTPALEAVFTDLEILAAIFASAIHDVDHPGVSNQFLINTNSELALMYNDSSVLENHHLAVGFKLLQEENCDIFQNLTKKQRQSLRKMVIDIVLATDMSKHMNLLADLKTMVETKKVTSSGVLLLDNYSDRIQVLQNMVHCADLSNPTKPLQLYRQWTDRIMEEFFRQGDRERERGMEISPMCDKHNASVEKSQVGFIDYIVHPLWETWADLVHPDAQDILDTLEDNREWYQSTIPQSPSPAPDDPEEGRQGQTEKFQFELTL

CCn1nc(CCCOC(=O)c2ccc(C(=O)N(C)C)cc2)c2c1C(=O)NCC1(CCOCC1)C2 [Example 106, 3-(1-ethyl-8-oxo-spiro[6,7-dihydro-4H-pyrazolo[3,4-c]azepine-5,4′-tetrahydro-pyran]-3-yl)propyl 4-(dimethylcarbamoyl)benzoate]
IC50: < 100 nM

CCn1nc(CCCOC(=O)c2ccc(C(=O)N3CCCC3)cc2)c2c1C(=O)NCC1(CCOCC1)C2 [Example 107, 3-(1-ethyl-8-oxo-spiro[6,7-dihydro-4H-pyrazolo[3,4-c]azepine-5,4′-tetrahydro-pyran]-3-yl)propyl 4-(pyrrolidine-1-carbonyl)benzoate]
IC50: < 100 nM

CCn1nc(CCCOC(=O)c2ccc(C(=O)N3CCCCC3)cc2)c2c1C(=O)NCC1(CCOCC1)C2 [Example 108, 3-(1-ethyl-8-oxo-spiro[6,7-dihydro-4H-pyrazolo[3,4-c]azepine-5,4′-tetrahydro-pyran]-3-yl)propyl 4-(piperidine-1-carbonyl)benzoate]
IC50: < 100 nM

CCn1nc(CCCOC(=O)c2ccc(C(=O)N3CCOCC3)cc2)c2c1C(=O)NCC1(CCOCC1)C2 [Example 109, 3-(1-ethyl-8-oxo-spiro[6,7-dihydro-4H-pyrazolo[3,4-c]azepine-5,4′-tetrahydropyran]-3-yl)propyl 4-(morpholine-4-carbonyl)benzoate]
IC50: < 100 nM

CCn1nc(CCCOC(=O)c2ccc(C(=O)N3CCN(C)CC3)cc2)c2c1C(=O)NCC1(CCOCC1)C2 [Example 110, 3-(1-ethyl-8-oxo-spiro[6,7-dihydro-4H-pyrazolo[3,4-c]azepine-5,4′-tetrahydropyran]-3-yl)propyl 4-(4-methylpiperazine-1-carbonyl)benzoate]
IC50: < 100 nM

CCn1nc(CCCOC(=O)c2ccc(C(=O)N3CCN(C(C)=O)CC3)cc2)c2c1C(=O)NCC1(CCOCC1)C2 [Example 111, 3-(1-ethyl-8-oxo-spiro[6,7-dihydro-4H-pyrazolo[3,4-c]azepine-5,4′-tetrahydropyran]-3-yl)propyl 4-(4-acetylpiperazine-1-carbonyl)benzoate]
IC50: < 100 nM

CCn1nc(CCCOC(=O)c2cccc(C(N)=O)c2)c2c1C(=O)NCC1(CCOCC1)C2 [Example 113, 3-(1-ethyl-8-oxo-spiro[6,7-dihydro-4H-pyrazolo[3,4-c]azepine-5,4′-tetrahydropyran]-3-yl)propyl 3-carbamoylbenzoate]
IC50: < 100 nM

CCn1nc(CCCOC(=O)c2cccc(C(=O)NC)c2)c2c1C(=O)NCC1(CCOCC1)C2 [Example 114, 3-(1-ethyl-8-oxo-spiro[6,7-dihydro-4H-pyrazolo[3,4-c]azepine-5,4′-tetrahydropyran]-3-yl)propyl 3-(methyl-carbamoyl)benzoate]
IC50: < 100 nM

CCn1nc(CCCOC(=O)c2cccc(C(=O)N(C)C)c2)c2c1C(=O)NCC1(CCOCC1)C2 [Example 115, 3-(1-ethyl-8-oxo-spiro[6,7-dihydro-4H-pyrazolo[3,4-c]azepine-5,4′-tetrahydropyran]-3-yl)propyl 3-(dimethyl-carbamoyl)benzoate]
IC50: < 100 nM

CCn1nc(CCCOC(=O)c2cccc(C(=O)N3CCCC3)c2)c2c1C(=O)NCC1(CCOCC1)C2 [Example 116, 3-(1-ethyl-8-oxo-spiro[6,7-dihydro-4H-pyrazolo[3,4-c]azepine-5,4′-tetrahydropyran]-3-yl)propyl 3-(pyrrolidine-1-carbonyl)benzoate]
IC50: < 100 nM

CCn1nc(CCCOC(=O)c2cccc(C(=O)N3CCCCC3)c2)c2c1C(=O)NCC1(CCOCC1)C2 [Example 117, 3-(1-ethyl-8-oxo-spiro[6,7-dihydro-4H-pyrazolo[3,4-c]azepine-5,4′-tetrahydropyran]-3-yl)propyl 3-(piperidine-1-carbonyl)benzoate]
IC50: < 100 nM

CCn1nc(CCCOC(=O)c2cccc(C(=O)N3CCOCC3)c2)c2c1C(=O)NCC1(CCOCC1)C2 [Example 118, 3-(1-ethyl-8-oxo-spiro[6,7-dihydro-4H-pyrazolo[3,4-c]azepine-5,4′-tetrahydropyran]-3-yl)propyl 3-(morpholine-4-carbonyl)benzoate]
IC50: < 100 nM

CCn1nc(CCCOC(=O)c2cccc(C(=O)N3CCN(C)CC3)c2)c2c1C(=O)NCC1(CCOCC1)C2 [Example 119, 3-(1-ethyl-8-oxo-spiro[6,7-dihydro-4H-pyrazolo[3,4-c]azepine-5,4′-tetrahydropyran]-3-yl)propyl 3-(4-methylpiperazine-1-carbonyl)benzoate]
IC50: < 100 nM

CCn1nc(CCCOC(=O)c2cccc(C(=O)N3CCN(C(C)=O)CC3)c2)c2c1C(=O)NCC1(CCOCC1)C2 [Example 120, 3-(1-ethyl-8-oxo-spiro[6,7-dihydro-4H-pyrazolo[3,4-c]azepine-5,4′-tetrahydropyran]-3-yl)propyl 3-(4-acetylpiperazine-1-carbonyl)benzoate]
IC50: < 100 nM

CCn1nc(CCCCOC(=O)C(C)C)c2c1C(=O)NCC1(CCOCC1)C2 [Example 121, 4-(1-ethyl-8-oxo-spiro[6,7-dihydro-4H-pyrazolo[3,4-c]azepine-5,4′-tetrahydropyran]-3-yl)butyl 2-methyl-propanoate]
IC50: < 100 nM

CCn1nc(CCCCOC(=O)C2CCCC2)c2c1C(=O)NCC1(CCOCC1)C2 [Example 122, 4-(1-ethyl-8-oxo-spiro[6,7-dihydro-4H-pyrazolo[3,4-c]azepine-5,4′-tetrahydropyran]-3-yl)butyl cyclopentane-carboxylate]
IC50: < 100 nM

CCn1nc(CCCCOC(=O)c2ccc(C)cc2)c2c1C(=O)NCC1(CCOCC1)C2 [Example 123, 4-(1-ethyl-8-oxo-spiro[6,7-dihydro-4H-pyrazolo[3,4-c]azepine-5,4′-tetrahydropyran]-3-yl)butyl 4-methylbenzoate]
IC50: < 100 nM

CCn1nc(CCCCOC(=O)c2ccc(F)cc2)c2c1C(=O)NCC1(CCOCC1)C2 [Example 124, 4-(1-ethyl-8-oxo-spiro[6,7-dihydro-4H-pyrazolo[3,4-c]azepine-5,4′-tetrahydropyran]-3-yl)butyl 4-fluorobenzoate]
IC50: < 100 nM

CCn1nc(CCCCOC(=O)c2ccc(OC)cc2)c2c1C(=O)NCC1(CCOCC1)C2 [Example 125, 4-(1-ethyl-8-oxo-spiro[6,7-dihydro-4H-pyrazolo[3,4-c]azepine-5,4′-tetrahydropyran]-3-yl)butyl 4-methoxybenzoate]
IC50: < 100 nM

CCn1nc(CCCCOC(=O)c2ccc(C(C)=O)cc2)c2c1C(=O)NCC1(CCOCC1)C2 [Example 126, 4-(1-ethyl-8-oxo-spiro[6,7-dihydro-4H-pyrazolo[3,4-c]azepine-5,4′-tetrahydropyran]-3-yl)butyl 4-acetylbenzoate]
IC50: < 100 nM

CCn1nc(CCCCOC(=O)c2ccc(C(N)=O)cc2)c2c1C(=O)NCC1(CCOCC1)C2 [Example 127, 4-(1-ethyl-8-oxo-spiro[6,7-dihydro-4H-pyrazolo[3,4-c]azepine-5,4′-tetrahydropyran]-3-yl)butyl 4-carbamoylbenzoate]
IC50: < 100 nM

CCn1nc(CCCCOC(=O)c2ccc(C(=O)NC)cc2)c2c1C(=O)NCC1(CCOCC1)C2 [Example 128, 4-(1-ethyl-8-oxo-spiro[6,7-dihydro-4H-pyrazolo[3,4-c]azepine-5,4′-tetrahydropyran]-3-yl)butyl 4-(methyl-carbamoyl)benzoate]
IC50: < 100 nM

CCn1nc(CCCCOC(=O)c2ccc(C(=O)N(C)C)cc2)c2c1C(=O)NCC1(CCOCC1)C2 [Example 129, 4-(1-ethyl-8-oxo-spiro[6,7-dihydro-4H-pyrazolo[3,4-c]azepine-5,4′-tetrahydropyran]-3-yl)butyl 4-(dimethyl-carbamoyl)benzoate]
IC50: < 100 nM
